Target: T1, Kir3.1/Kir3.4 (Homo sapiens, UniProt P48544+P48549)
T1 sequence (P48549 whole entry): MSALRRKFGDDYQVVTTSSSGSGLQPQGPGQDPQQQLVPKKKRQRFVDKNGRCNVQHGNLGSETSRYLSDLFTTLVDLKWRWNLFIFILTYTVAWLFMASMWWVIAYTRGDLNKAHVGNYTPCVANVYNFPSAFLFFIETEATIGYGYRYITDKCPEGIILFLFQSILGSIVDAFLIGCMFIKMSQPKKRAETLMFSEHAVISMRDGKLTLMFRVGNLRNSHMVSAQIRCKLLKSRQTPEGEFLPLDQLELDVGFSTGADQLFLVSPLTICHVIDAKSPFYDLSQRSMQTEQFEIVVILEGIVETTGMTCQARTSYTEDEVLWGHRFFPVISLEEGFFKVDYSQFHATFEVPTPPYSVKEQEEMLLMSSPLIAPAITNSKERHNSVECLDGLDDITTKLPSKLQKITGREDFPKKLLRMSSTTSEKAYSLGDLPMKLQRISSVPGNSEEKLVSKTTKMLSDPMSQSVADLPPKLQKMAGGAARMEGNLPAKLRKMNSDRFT
T1 sequence (P48544 whole entry): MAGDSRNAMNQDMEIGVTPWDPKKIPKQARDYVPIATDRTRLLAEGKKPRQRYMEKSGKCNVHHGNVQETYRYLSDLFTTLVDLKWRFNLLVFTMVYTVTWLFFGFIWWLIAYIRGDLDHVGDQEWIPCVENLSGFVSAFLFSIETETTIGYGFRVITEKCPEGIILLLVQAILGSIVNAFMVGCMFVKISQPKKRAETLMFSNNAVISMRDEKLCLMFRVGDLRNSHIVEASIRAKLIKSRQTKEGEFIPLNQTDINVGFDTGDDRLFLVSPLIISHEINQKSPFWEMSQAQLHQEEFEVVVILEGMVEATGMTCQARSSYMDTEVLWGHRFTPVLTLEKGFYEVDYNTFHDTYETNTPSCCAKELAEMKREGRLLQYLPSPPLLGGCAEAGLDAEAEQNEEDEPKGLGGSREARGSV
Assay: IonWorks Quattro system: Quattro is controlled using IonWorks v2 software to perform the following steps:a. Add 3.5 ul cells plus 3.5 ul external buffer to wells of Quattro Patch Plateb. Circulate amphotericin B and internal buffer onto cellsc. Apply the following voltage protocol: Pulse 1: 15 mV for 300 milliseconds (ms), followed by Pulse 2: −120 mV for 400 ms, then Pulse 3: −15 mV for 400 ms, and finally Pulse 4: −120 mV to 40 mV over 500 ms (this is a voltage ramp).d. Measure magnitude of inward potassium current at time point between 1200-1220 ms from start of Pulse 1 (i.e. during the voltage ramp phase).e. Add 3.5 ul of diluted compounds (or DMSO) to wells and repeat steps c-d (final compound concentrations are 50 uM to 0.1 uM, for potent compounds 0.5 uM to 0.01 uM and each concentration is tested in quadruplicate—i.e. in 4 separate wells).f. The difference between current magnitude pre vs. post-compound gives a measure of GIRK1/4 inhibition.7. Data analysis:IC50 values are calculated by plotting the percentage of current inhibition (normalized to the DMSO-only control) as a function of compound concentration using standard data analysis software.

IC50 [nM]	Structure (SMILES)
351	O=c1cc(CO)n(-c2c(Cl)cccc2Cl)c2c(Cl)cnc(OCC(CO)CO)c12
99	CS(=O)(=O)NCCOc1ncc(Cl)c2c1c(=O)cc(CO)n2-c1c(Cl)cccc1Cl

Reference: ChEMBL document CHEMBL5729489, “Naphthyridinone derivatives and their use in the treatment of arrhythmia” (2022)
